In general, IC50 refers to the midpoint of a concentration-inhibition curve. Low values mean greater potency in that assay, high ones weaker potency in that assay.

Test [1] addresses T1, Thyroid hormone receptor alpha (Homo sapiens, UniProt P10827).
T1 sequence (P10827 whole entry): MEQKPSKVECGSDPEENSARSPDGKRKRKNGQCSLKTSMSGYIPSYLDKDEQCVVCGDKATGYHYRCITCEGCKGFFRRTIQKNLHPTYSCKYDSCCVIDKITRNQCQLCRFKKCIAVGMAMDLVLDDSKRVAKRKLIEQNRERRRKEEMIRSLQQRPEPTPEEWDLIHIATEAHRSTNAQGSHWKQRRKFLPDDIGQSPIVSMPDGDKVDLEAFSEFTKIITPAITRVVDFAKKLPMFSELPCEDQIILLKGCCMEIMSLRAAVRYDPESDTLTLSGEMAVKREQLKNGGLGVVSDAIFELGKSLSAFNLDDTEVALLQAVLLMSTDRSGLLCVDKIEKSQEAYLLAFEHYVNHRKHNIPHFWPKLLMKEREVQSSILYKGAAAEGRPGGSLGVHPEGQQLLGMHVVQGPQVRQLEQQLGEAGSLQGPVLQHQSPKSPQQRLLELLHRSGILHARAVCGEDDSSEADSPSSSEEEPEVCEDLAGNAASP

The target of test [2] is T2, Thyroid hormone receptor beta (Homo sapiens, UniProt P10828).
T2 sequence (P10828 whole entry): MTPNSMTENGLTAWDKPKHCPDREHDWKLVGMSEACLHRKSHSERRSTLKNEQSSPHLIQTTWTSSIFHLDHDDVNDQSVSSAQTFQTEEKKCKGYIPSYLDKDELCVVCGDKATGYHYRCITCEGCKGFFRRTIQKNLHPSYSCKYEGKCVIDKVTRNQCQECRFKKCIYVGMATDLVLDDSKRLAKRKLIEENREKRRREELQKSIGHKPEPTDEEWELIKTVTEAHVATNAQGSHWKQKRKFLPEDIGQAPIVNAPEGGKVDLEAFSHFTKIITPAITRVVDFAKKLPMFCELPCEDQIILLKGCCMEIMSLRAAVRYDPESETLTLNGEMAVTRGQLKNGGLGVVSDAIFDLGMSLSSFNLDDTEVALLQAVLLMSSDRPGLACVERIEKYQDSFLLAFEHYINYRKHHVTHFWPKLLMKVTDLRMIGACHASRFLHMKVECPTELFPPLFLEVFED
Description: Inhibitory concentration against cloned human thyroid hormone receptor beta 1

Test [3] deals with T1, Thyroid hormone receptor alpha. In words: Inhibitory concentration against cloned human thyroid hormone receptor alpha 1.

Regarding `O=C(O)CNc1cc(Cl)c(-c2cccc3c(Br)c(O)ccc23)c(Cl)c1`, the IC50 in test [1] is 19 nM; in test [2] it was 1.8 nM.

For the molecule `O=C(O)Cc1cc(Cl)c(Oc2ccc(O)cc2)c(Cl)c1`, the IC50 in test [1] was 3600 nM; in test [2], 2140 nM.

Consider `O=C(O)CCC(=O)Nc1cc(Cl)c(-c2cccc3c(Br)c(O)ccc23)c(Cl)c1`, for which the values for the IC50 in test [1] and in test [2] were 62 nM and 22 nM, respectively.

As to `O=C(O)Cc1cc(Cl)c(-c2cccc3c(Br)c(O)ccc23)c(Cl)c1`, the IC50 in test [1] stood at 101 nM; in test [2] it was 13 nM.

Regarding `O=C(O)C(=O)Nc1cc(Cl)c(-c2cccc3c(Br)c(O)ccc23)c(Cl)c1`, the figures for the IC50 in test [1] and in test [2] were 5.4 nM and 0.3 nM, respectively.

Regarding `COc1ccc2c(-c3c(Cl)cc(NC(=O)CC(=O)O)cc3Cl)cccc2c1C(C)C`, the IC50 in test [1] came to 14 nM; in test [2], 0.3 nM.

As for `O=C(O)Cc1cc(Cl)c(-c2cccc3cc(O)ccc23)c(Cl)c1`, the figures for the IC50 in test [3] and in test [2] were 1540 nM and 545 nM, respectively.

In the case of `O=C(O)CCNc1cc(Cl)c(-c2cccc3c(Br)c(O)ccc23)c(Cl)c1`, the IC50 was 13 nM in test [1] and 1.8 nM in test [2].

Take `O=C(O)Cc1cc(Cl)c(Oc2ccc(O)c(Br)c2)c(Cl)c1`: the IC50 in test [1] came to 109 nM; in test [2] it was 9 nM.

For `Cc1c(O)ccc2c(-c3c(Cl)cc(NC(=O)O)cc3Cl)cccc12`, the IC50 in test [1] amounted to 48 nM; in test [2], 7.2 nM.

As to `O=C(O)CC(=O)Nc1cc(Cl)c(-c2cccc3c(Br)c(O)ccc23)c(Cl)c1`, the values for the IC50 in test [1] and in test [2] were 4.3 nM and 0.3 nM, respectively.

In the case of `O=C(O)Nc1cc(Cl)c(-c2cccc3c(-c4ccccc4)c(O)ccc23)c(Cl)c1`, the IC50 came to 125 nM in test [1] and 29 nM in test [2].

For the origin of these results see ChEMBL document CHEMBL1142857, “A new class of high affinity thyromimetics containing a phenyl-naphthylene core” (Bioorg Med Chem Lett, 2005).
